{"source": "patent US20260159519A1", "about": "“IMIDAZOPYRIDAZINE SUBSTITUTED BENZENE RING DERIVATIVE, PREPARATION METHOD, PHARMACEUTICAL COMPOSITION AND USE” (SHANGHAI SIMR BIOTECHNOLOGY CO., LTD., priority 2022, published 2026)", "key": {"[1]": {"molecular_target": "T1, human α2-GABAA receptor (α2-GABAAR-HEK293 cells) (Homo sapiens, UniProt P18507+P47869)", "T1 construct": "expressed in transfected cells", "experiment": "Whole-cell patch-clamp electrophysiology, positive allosteric modulatory activity on α2-GABAA receptor", "assay_type": "cell-based", "settings": "read-out: α2-GABAA positive allosteric modulatory activity"}, "[2]": {"molecular_target": "T2, human α1-GABAA receptor (α1-GABAAR-HEK293 cells) (Homo sapiens, UniProt P14867+P18507)", "T2 construct": "expressed in transfected cells", "experiment": "Whole-cell patch-clamp electrophysiology, positive allosteric modulatory activity on α1-GABAA receptor", "assay_type": "cell-based", "settings": "read-out: α1-GABAA positive allosteric modulatory activity"}, "[3]": {"tested_on": "Chinese hamster ovary cells (CHO-WBL cells)", "experiment": "In vitro micronucleus assay", "assay_type": "cell-based", "settings": "3-hour treatment with S9, 3-hour and 24-hour treatment without S9; overall judgment", "text": "The experimental design is based on the experimental purpose and follows the following experimental design guidelines: • (1) OECD Guidelines for the Testing of Chemicals 487, In Vitro Mammalian Cell Micronucleus Test, revised in 2016; • (2) ICH S2 (R1): Guideline on Genotoxicity Testing and Data Interpretation for Pharmaceuticals Intended for Human Use, validated in November 2011.\nExperimental system and selection rationale: Chinese hamster ovary cells (CHO-WBL cells) were used as an experimental system in this experiment. The cell line has a karyotype containing 21 chromosomes and a growth cycle of 12 to 13 hours. CHO-WBL cells were originally derived from Dr. S. Wolff at the University of California in San Francisco, USA, then cloned in the laboratory of Dr. A. Bloom at Columbia University in New York, and cloned again by Dr. S. Galloway at Litton Bionetics Laboratory in Maryland. The cell stock solution was stored in liquid nitrogen. The karyotype of each batch of cell stock solution was identified, and tests confirmed that it was free from mycoplasma contamination. The number of passages after cell cloning will not exceed 15. Chinese hamster ovary cells were chosen because the cell line is recommended for use in OECD Guidelines for the Testing of Chemicals 487 and has been proven to be sensitive to a variety of clastogens/aneugens (Marilyn J. et al., 2006).\nMedium and cell growth conditions: Chinese hamster ovary cells were cultured in McCoy's 5A complete medium (McCoy's 5A complete medium supplemented with 10 vt % fetal bovine serum, 2 mM GlutaMAX™ medium, 100 units/mL penicillin, and 100 μg/mL streptomycin), and grown in a standard environment (a high-humidity incubator with a temperature of 37° C. and a CO2 concentration of 5%). The day before administration, CHO-WBL cells in exponential growth phase were inoculated onto an eight-well cell culture slide at a density of 8×10^3 cells/400 μL McCoy's 5A complete medium/well.\nMetabolic activation system: The in vitro metabolic activation system (Maron and Ames, 1983) contains a rat liver microsomal homogenate induced by β-naphthoflavone and phenobarbital (referred to as S9) and an NADPH-generating system (i.e., NADP disodium and isocitric acid trisodium). S9 was purchased from CHI Scientific, Inc. and stored in a −75° C. refrigerator prior to use. Preparation method for S9 homogenate: Male Sprague Dawley rats were intraperitoneally injected with a single dose of p-naphthoflavone and phenobarbital, followed by material preparation.\nPreparation of S9 metabolic activation system: NADP disodium salt and isocitric acid trisodium salt were first dissolved in serum-free medium to prepare a core solution, which was then filtered through a 0.22 µm filter to sterilize. Immediately before use, the S9 homogenate was thawed, and the components of the S9 metabolic activation system were mixed in the proportions shown in Table 2 below.\nDose exploration experiment: In the dose exploration experiment, 8 administration concentrations were established in each administration treatment series. For each concentration of the test substance, 1 well of cells was set up. According to the ICH S2 (R1) guidelines, when not limited by the solubility of the test substance in the solvent/medium or the cytotoxicity of the test substance, the recommended maximum concentration is 1 mM or 0.5 mg/mL, whichever is lower. However, when limited by solubility, the test maximum concentration is the minimum concentration at which a small amount of precipitate is visible in the medium under the microscope. To ensure that the upper limit of solubility in the medium can be reached, up to 4 concentrations with visible precipitate can be tested."}, "[4]": {"molecular_target": "T3, human α2-GABAA receptor (BZD site, membrane protein of HEK293 cells) (Homo sapiens, UniProt P18507+P47869)", "T3 construct": "expressed in transfected cells", "experiment": "Radioligand competitive binding assay (3H-flunitrazepam) at the BZD site of the α2-GABAA receptor", "settings": "competition with 1 nM 3H-flunitrazepam; Ki calculated from IC50; read-out: α2 Ki"}}, "data": [{"smiles": "CCn1cnc2c(-c3ccc(F)c(-c4ccc(S(=O)(=O)CC)cc4OC)c3)cnnc21", "note": "[CVL-865, reference compound]", "values": [{"measurement": "activation at 0.1 µM", "setting": "[1]", "result": 100, "unit": "%"}, {"measurement": "activation at 0.1 µM", "setting": "[2]", "result": 100, "unit": "%"}, {"measurement": "Results of in vitro micronucleus assay", "setting": "[3]", "result": "Positive"}]}, {"smiles": "CCn1cnc2c(-c3ccc(F)c(-c4ccc5c(nnn5C)c4COC)c3)cnnc21", "note": "[Example 16, 7-Ethyl-4-(4-fluoro-3-(4-(methoxymethyl)-1-methyl-1H-benzo[d][1,2,3]triazol-5-yl)phenyl)-7H-imidazo[4,5-c]pyridazine]", "values": [{"measurement": "activation at 0.1 µM", "setting": "[1]", "result": 104, "unit": "%"}, {"measurement": "Ki", "setting": "[4]", "result": 11.6, "unit": "nM"}, {"measurement": "activation at 0.1 µM", "setting": "[2]", "result": 38, "unit": "%"}]}, {"smiles": "CCn1cnc2c(-c3ccc(F)c(-c4ccc5c(nnn5C5CC5)c4OC)c3)cnnc21", "note": "[Example 70, 4-(3-(1-Cyclopropyl-4-methoxy-1H-benzo[d][1,2,3]triazol-5-yl)-4-fluorophenyl)-7-ethyl-7H-imidazo[4,5-c]pyridazine]", "values": [{"measurement": "activation at 0.1 µM", "setting": "[1]", "result": 90, "unit": "%"}, {"measurement": "Ki", "setting": "[4]", "result": 0.5, "unit": "nM"}, {"measurement": "activation at 0.1 µM", "setting": "[2]", "result": -27, "unit": "%"}]}, {"smiles": "CCn1cnc2c(-c3ccc(F)c(-c4cc5cn(C6CCN(C)CC6)nc5cc4OC)c3)cnnc21", "note": "[Example 99, 7-Ethyl-4-(4-fluoro-3-(6-methoxy-2-(1-methylpiperidin-4-yl)-2H-indazol-5-yl)phenyl)-7H-imidazo[4,5-c]pyridazine]", "values": [{"measurement": "activation at 0.1 µM", "setting": "[1]", "result": 106, "unit": "%"}, {"measurement": "Ki", "setting": "[4]", "result": 4.31, "unit": "nM"}, {"measurement": "activation at 0.1 µM", "setting": "[2]", "result": -2, "unit": "%"}]}, {"smiles": "CCn1cnc2c(-c3ccc(F)c(-c4cc5ccc(=O)n(C)c5cc4OC)c3)cnnc21", "note": "[Example 55, 6-(5-(7-Ethyl-7H-imidazo[4,5-c]pyridazin-4-yl)-2-fluorophenyl)-7-methoxy-1-methylquinolin-2(1H)-one]", "values": [{"measurement": "activation at 0.1 µM", "setting": "[1]", "result": 81, "unit": "%"}, {"measurement": "Ki", "setting": "[4]", "result": 2.43, "unit": "nM"}, {"measurement": "activation at 0.1 µM", "setting": "[2]", "result": 21, "unit": "%"}]}, {"smiles": "CCn1cnc2c(-c3ccc(F)c(-c4cc5cn(C(F)F)nc5cc4OC)c3)cnnc21", "note": "[Example 111, 4-(3-(2-(Difluoromethyl)-6-methoxy-2H-indazol-5-yl)-4-fluorophenyl)-7-ethyl-7H-imidazo[4,5-c]pyridazine]", "values": [{"measurement": "activation at 0.1 µM", "setting": "[1]", "result": 102, "unit": "%"}, {"measurement": "Ki", "setting": "[4]", "result": 3.35, "unit": "nM"}, {"measurement": "activation at 0.1 µM", "setting": "[2]", "result": 64, "unit": "%"}]}, {"smiles": "CCn1cnc2c(-c3ccc(F)c(-c4cc5oc(C6CCOCC6)nc5cc4OC)c3)cnnc21", "note": "[Example 93, 6-(5-(7-Ethyl-7H-imidazo[4,5-c]pyridazin-4-yl)-2-fluorophenyl)-5-methoxy-2-(tetrahydro-2H-pyran-4-yl)benzo[d]oxazole]", "values": [{"measurement": "activation at 0.1 µM", "setting": "[1]", "result": 115, "unit": "%"}, {"measurement": "Ki", "setting": "[4]", "result": 8.32, "unit": "nM"}, {"measurement": "activation at 0.1 µM", "setting": "[2]", "result": 79, "unit": "%"}]}, {"smiles": "CCn1cnc2c(-c3ccc(F)c(-c4cc5c(cc4OC)-c4c(cnn4C)CO5)c3)cnnc21", "note": "[Example 10, 7-(5-(7-Ethyl-7H-imidazo[4,5-c]pyridazin-4-yl)-2-fluorophenyl)-8-methoxy-1-methyl-1,4-dihydrochromeno[4,3-c]pyrazole]", "values": [{"measurement": "activation at 0.1 µM", "setting": "[1]", "result": 98, "unit": "%"}, {"measurement": "Ki", "setting": "[4]", "result": 26.9, "unit": "nM"}, {"measurement": "activation at 0.1 µM", "setting": "[2]", "result": 1, "unit": "%"}]}]}
